For assay [1], the target named is T1, Ubiquitin-conjugating enzyme E2 N (Homo sapiens, UniProt P61088).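 Also: Dose-response confirmation in a TR-FRET assay detecting UBC13-driven polyubiquitin chain formation, inhibition measured.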
T1 sequence (P61088 whole entry): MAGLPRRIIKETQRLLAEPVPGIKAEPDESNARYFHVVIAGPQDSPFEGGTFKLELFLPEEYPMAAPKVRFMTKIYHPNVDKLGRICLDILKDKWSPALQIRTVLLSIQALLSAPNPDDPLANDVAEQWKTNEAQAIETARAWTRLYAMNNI
In kind it is functional.

A short description of assay [2]: inhibitors of HIV Env-driven cell fusion, dose response, cherry-pick (AID 652057). In kind it is functional, cell-based.
A short description of assay [3]: inhibitors of clade B AD8 Env fusion, dose response, cell-based, cherry-pick (AID 652062).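 Also: luciferase signal from cell-cell fusion driven by HIV-1 clade B AD8 Env; potency is for inhibitors of fusion seen as a drop in luminescence.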 In kind it is functional.
A short description of assay [4]: off-target signal loss in HeLa-CEM21 co-culture – HeLa F-luc CTL cells, cherry-picked, counter-screen for HIV-1 Env fusion inhibitor project, dose response (AID 652040).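 Also: potency for signal decrease marking cytotoxic or nonspecific inhibition.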 In kind it is functional, cell-based.
Assay [5] can be described thus: ZM109 Env clade C HIV-1 fusion inhibitors, dose response, HeLa effector, CEM target cells, luciferase, cherry-pick (AID 652058). The class given is functional, cell-based.
Assay [6] in a line: cells. The class given is functional, cell-based.
Assay [7] is described as follows: cells. The class given is functional, cell-based. The source holds these as a separate data set.
The target in assay [8] is DNA dC->dU-editing enzyme APOBEC-3G (Homo sapiens, UniProt Q9HC16). Description: Dose Response confirmation of small molecule APOBEC3G DNA Deaminase Inhibitors via a fluorescence-based single-stranded DNA deaminase assay. [Related pubchem assays (depositor defined):AID493012, AID493028]. In kind it is functional.
For assay [9], the target named is T2, Heat shock factor protein 1 (Mus musculus, UniProt P38532).
T2 sequence (P38532 whole entry): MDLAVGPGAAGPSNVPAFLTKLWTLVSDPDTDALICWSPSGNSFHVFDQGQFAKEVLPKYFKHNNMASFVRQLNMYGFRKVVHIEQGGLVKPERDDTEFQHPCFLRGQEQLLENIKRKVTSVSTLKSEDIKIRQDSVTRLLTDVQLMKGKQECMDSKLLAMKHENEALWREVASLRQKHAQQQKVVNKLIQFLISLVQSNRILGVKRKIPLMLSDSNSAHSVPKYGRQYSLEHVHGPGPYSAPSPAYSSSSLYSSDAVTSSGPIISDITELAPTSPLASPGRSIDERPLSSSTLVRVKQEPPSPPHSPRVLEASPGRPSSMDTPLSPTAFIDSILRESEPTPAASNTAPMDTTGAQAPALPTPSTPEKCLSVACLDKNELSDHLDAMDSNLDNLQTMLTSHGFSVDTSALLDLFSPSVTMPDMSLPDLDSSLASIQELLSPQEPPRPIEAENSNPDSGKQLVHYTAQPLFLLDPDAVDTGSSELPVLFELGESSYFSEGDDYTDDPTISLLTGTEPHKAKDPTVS
Description: inhibition of MG132-induced HSE-luciferase signal, confirmation, cell-based, NIH3T3, luminescence, dose retest (AID 2382).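 Also: NIH3T3 fibroblasts with HSF1-driven luciferase reporter stressed by proteasome inhibitor MG132; luminescence from HSF1-driven luciferase expression after 8 hours of MG132 stress.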 The class given is functional.

Assay [10] can be described thus: inhibitors of firefly luciferase expression or activity, dose response, H4 neuroglioma cells, luminescence (AID 1990). In kind it is functional, cell-based.
Assay [11] in a line: control 3'UTR Renilla luciferase suppression, dose response, counter-screen for Shn3 inhibitor project, cell-based, Clone20-Shn3RL, cherry-picked (AID 624133). The class given is functional.
Assay [12] can be described thus: inhibitors of SNCA 5'UTR-driven reporter translation, confirmation, H4 neuroglioma cells, luminescence (AID 1988). In kind it is functional, cell-based.
A further assay has as its system INS1. The assay can be described thus: beta cell apoptosis inhibitors, cytokine rescue, dose response, luminescence, retest (AID 449756).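 Also: cell death triggered by IL-1 beta plus TNF-alpha plus IFN-gamma mixture; protective hits raise ATP signal compared with cytokine alone wells.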 The conditions noted are these: Rattus norvegicus. The class given is functional, cell-based.
Assay [13] in a line: cytotoxicity in HPDE-C7 cells, cell-based, fluorescence, HTS (AID 430). The conditions noted are these: Homo sapiens. The class given is functional.
A short description of assay [14]: HepG2 cell cytotoxicity, dose response, cytotoxicity control for Shn3 inhibitor project, CellTiter-Glo, cherry-picked (AID 624134). The class given is functional, cell-based.
The nature of assay [15]: cytotoxicity in KRAS-transformed pancreatic duct cells, primary screen, cell-based, fluorescence, HTS (AID 431). In kind it is functional. The conditions noted are these: Homo sapiens.
The nature of assay [16]: Luminescence Cell-Based Dose Response HTS to Identify Inhibitors of 5'UTR Stem-Loop Driven Prion Protein mRNA Translation in H4 Neuroglioblastoma Cells. [Related pubchem assays: 1827 (Project Summary), 1813 (Primary HTS)]. In kind it is functional.
The nature of assay [17]: Shn3 3'UTR reporter inhibitors, dose response, cell-based, Clone20 osteoblasts, firefly luciferase, cherry-picked (AID 624132).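 Also: firefly luciferase luminescence from reporter carrying the Shn3 3'UTR in osteoblasts.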 In kind it is functional.
The test system of the next assay is HeLa. Description: HeLa cell cytotoxicity, dose response, cytotoxicity control for MITF activator project, CellTiter-Glo luminescence, cherry-pick samples (AID 540259). The class given is functional, cell-based. The conditions noted are these: Homo sapiens.
A further assay has as its system H9c2. The assay can be described thus: cells. In kind it is functional, cell-based. The conditions noted are these: Rattus norvegicus, H9c2, Myocardium.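 Also: confirmatory concentration-response retest of ultra-high-throughput screening hits for modulation of myocardial damage; cell death induced by hydrogen peroxide oxidative stress; compound pretreatment for 60 min then peroxide exposure for 2 h; potency is for protecting the cells against peroxide damage rather than for killing them.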
Another assay deals with P388/ADR. The assay can be described thus: cells. The class given is functional. The conditions noted are these: Mus musculus, P388/ADR.
For the next assay, the system named is SN12K1. Description: cells. To be noted: Homo sapiens, SN12K1. The class given is functional.
The nature of assay [18]: cytotoxicity toward NIH3T3 fibroblasts, dose response, counter-screen, cell-based, ATP luminescence, mouse fibroblasts (AID 2010).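 Also: cells exposed to compound for about 90 hours before reading.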 The class given is functional.
Assay [19] is described as follows: inhibitors of intracellular T. cruzi replication, confirmation, NIH3T3 host cells, beta-gal luminescence (AID 2044).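 Also: intracellular parasites grown in NIH/3T3 mouse fibroblasts as host cells; luminescent beta-galactosidase reporter signal from transgenic T. cruzi replicating inside host cells; inhibitors lower the luminescence signal.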 In kind it is functional, cell-based.
Assay [20] in a line: Luminescence Cell-Based Dose Retest to Confirm Inhibitors of Cancer Stem Cells. [Related pubchem assays (depositor defined):AID2717, AID2721]. The conditions noted are these: Homo sapiens. In kind it is functional.
Assay [21] in a line: P. falciparum Dd2 growth inhibitors, dose response, SYBR Green, cherry-picked samples (AID 1159567). The class given is functional, cell-based.

Active and inactive are the calls of the source. A value given as a limit tells only on which side of the number the result lay.

Sequence of DNA dC->dU-editing enzyme APOBEC-3G (Q9HC16 whole entry): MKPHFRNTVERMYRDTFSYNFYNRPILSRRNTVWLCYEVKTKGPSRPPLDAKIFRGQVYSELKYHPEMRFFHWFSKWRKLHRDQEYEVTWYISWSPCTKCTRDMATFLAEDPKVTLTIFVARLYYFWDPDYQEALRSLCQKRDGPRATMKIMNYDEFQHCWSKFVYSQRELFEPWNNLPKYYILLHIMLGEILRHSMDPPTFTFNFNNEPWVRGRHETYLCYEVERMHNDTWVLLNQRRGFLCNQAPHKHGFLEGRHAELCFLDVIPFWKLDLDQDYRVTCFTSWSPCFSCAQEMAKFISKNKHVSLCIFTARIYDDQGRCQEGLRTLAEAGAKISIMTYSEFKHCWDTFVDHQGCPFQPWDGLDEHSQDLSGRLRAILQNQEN

As to `O=S1(=O)CC(O)C(N=Nc2c(O)n(Cc3ccccc3)c3ccccc23)C1` (stereo unspecified), the IC50 in assay [1] is > 20 µM (inactive).
On to `COc1ccc(N2C(=O)NC(=O)/C(=C(/C)NCCCn3ccnc3)C2=O)cc1`, for which the AC50 in assay [2] was 2.49 µM (active); in assay [3], 6.76 µM (active); in assay [4] it was 19.5 µM (active); in assay [5] it was 4.33 µM (active).
As for `CC(C)Cn1c(/C=N/Nc2nc3ccccc3[nH]2)nc2ccccc21`, the values for the EC50 in the assay “cells [6]” and in the assay “cells [7]” were > 350 µM (not active) and 52.5 µM (active), respectively.
Consider `COc1ccc(/C=N/n2c(S)nnc2-c2cc(C)[nH]n2)cc1OC`, for which the half-maximal inhibitory concentration (IC50) in assay [8] was 8.3 µM (active). Besides, the EC50 in [9] is > 195 µM (not active).
As for `Cc1cc(NC(=O)CSc2nc3c(c(=O)n2-c2ccc(Cl)cc2)SCC3)no1`, the EC50 in “cells [6]” and in “cells [7]” was > 350 µM (not active) each time.
For the compound `CC[C@H]1CN2CCc3cc(OC)c(OC)cc3[C@@H]2C[C@@H]1C[C@H]1NCCc2cc(OC)c(OC)cc21`, the EC50 in assay [10] is < 0.1 µM (active); in [12], < 0.1 µM (active); in [9], < 0.16 µM (active); in [13], 0.15 µM (active); in assay [15], 0.09 µM (active); in [16], < 0.1 µM (active). Also, the AC50 was 0.33 µM (active) in assay [11], 2.35 µM (active) in the assay on INS1, 40.5 µM (active) in assay [14] and < 0.26 µM (active) in assay [17].
For `COc1ccc(-c2csc(-n3cccn3)n2)cc1`, the AC50 in the assay with HeLa is 33.9 µM (active).
With `O=C(COC(=O)c1ccc([N+](=O)[O-])o1)Nc1cccc(S(=O)(=O)N2CCCCC2)c1`, in the assay with H9c2, the IC50 was > 79 µM (inactive).
Consider `COc1ccc(CC(=S)N2CCOCC2)cc1`, for which the IC50 in assay [8] was 46.1 µM (active).
With `COC(=O)c1ccccc1NC(=O)c1nc2nc(C)cc(C)n2n1`, the IC50 in the assay with H9c2 was > 79 µM (inactive).
For the compound `CCCCC(=O)Nc1ccc(NC(=O)CC)cc1OC`, the EC50 in the assay “cells [6]” and in the assay “cells [7]” was > 350 µM (not active) each time.
For the compound `CC(C)c1ccc(NC2=NN=C(c3cccs3)CS2)cc1`, the AC50 in the assay with HeLa was 63.8 µM (active).
As for `O=NN(CCCl)C(=O)NC1CCC(CC2CCC(NC(=O)N(CCCl)N=O)CC2)CC1` (stereo unspecified), the GI50 with P388/ADR is 1.64 µM (inactive); in the assay with SN12K1 it was 0.385 µM (active).
As for `C/C(=N\NC(=O)c1cc(-c2cccnc2)nc2ccccc12)c1ccccc1O`, in the assay on INS1, the AC50 is 0.971 µM (active). Besides, the EC50 in “cells [6]” was > 350 µM (not active); in “cells [7]”, 16.8 µM (active); in [18] it was 2.18 µM (active); in [19], 0.834 µM (active).
Take `O=C(N/N=C\c1cccc(Cl)c1)c1[nH]nc2c1CCCC2`: the AC50 in the assay on HeLa is > 350 µM (inactive).
In the case of `C#CCOCCOCCOCCNc1nc(N2CCN(C(=O)[C@H](CO)n3cc([C@@H](N)C(C)C)nn3)CC2)nc(N2CCN(C(=O)[C@H](CCC(=O)O)n3cc([C@@H](N)CCCCN)nn3)CC2)n1`, the IC50 in assay [1] is > 20 µM (inactive).
With `O=C(N/N=C/c1cccnc1)c1ccc(NC(=O)c2ccc(Cl)cc2)cc1`, the EC50 in the assay “cells [6]” and in “cells [7]” was > 350 µM (not active) throughout.
On to `NS(=O)(=O)c1ccc(NC=C2C(=O)N(C3CCCCC3)C(=O)N(C3CCCCC3)C2=O)cc1`, for which the results for the EC50 in assay [13] and in [15] were 5.47 µM (active) and 5.81 µM (active), respectively. In addition, the half-maximal activity concentration (AC50) in assay [20] was 3.92 µM (active).
Take `Cc1ccc(-c2cc(-c3ccc(C)cc3O)[nH]n2)cc1`: the concentration at half-maximal activity (AC50) in the assay on HeLa was 44.6 µM (active).
For `C=CCC1(CC=C)CCCN1C(=O)C1CCC(=O)N(CCc2ccccc2)C1` (stereo unspecified), the AC50 with HeLa is 93 µM (active).
With `COc1cc(-c2nnc(COC(=O)c3cc(C)nc4ccc(C)cc34)o2)cc(OC)c1OC`, the half-maximal inhibitory concentration (IC50) with H9c2 is 12.3 µM (active).
Regarding `CCOC(=O)c1c(NC(=O)c2ccc(-n3cnnn3)cc2)sc2c1CCCC2`, the 50% effective concentration (EC50) in assay [13] and in assay [15] was > 20 µM (not active) in each case.
Take `CC(=O)c1sc(NC(=O)c2ccc3c(c2)OCO3)nc1C`: the half-maximal activity concentration (AC50) in the assay with HeLa is 51.5 µM (active).
As for `Cc1cc2c3c(c1)C1(SCC(=O)N1c1ccc(F)cc1)C(=O)N3C(C)(C)CC2C` (stereo unspecified), the AC50 in assay [2] is 3.4 µM (active); in [3], 9.73 µM (active); in [4], > 32 µM (inactive).
For `CC(C)Cn1nc(NS(=O)(=O)c2ccccc2)c2cc3ccccc3nc21`, the EC50 in assay [13] and in assay [15] was > 20 µM (not active) in each case.
`CCCN1C[C@@H](C)[C@H](OC)CN(C)C(=O)c2ccc(NC(=O)c3cccc(F)c3)cc2OC[C@H]1C`: the AC50 in [21] is 5.34 µM (active).
With `c1csc(-c2noc(COc3ccc4c(c3)CCCC4)n2)c1`, in the assay on HeLa, the AC50 is > 350 µM (inactive).
`CN(C)Cc1ccc(-c2nc3cccc4c3n2CCNC4=O)cc1`: the IC50 in the assay on H9c2 was > 79 µM (inactive).
`CCC[C@@H](CN1CCC[C@H]1CN1C(N)=NC[C@@H]1Cc1ccccc1)N1C[C@@H]([C@H](C)CC)N(CCc2ccc(Cl)c(Cl)c2)C1=N`: in assay [1], the IC50 is > 20 µM (inactive).
In the case of `CCCCN=C(S)Nc1ccc2c[nH]nc2c1`, the EC50 in the assay “cells [6]” and in the assay “cells [7]” was > 350 µM (not active) each time.
As for `O=C(CCc1nc(O)c2ccccc2n1)Nc1ccc(N2CCCCC2)cc1`, the IC50 with H9c2 is > 79 µM (inactive).
On to `CC(=O)N1CCN(C(=O)CCc2nc(O)c3ccccc3n2)CC1`, for which the IC50 in the assay with H9c2 was > 79 µM (inactive).
Regarding `NC(=O)c1nsc(C(=O)N(c2cccc(F)c2)C(C(=O)NCC2CCCO2)c2c[nH]c3ccccc23)c1N` (stereo unspecified), the IC50 in assay [1] is > 20 µM (inactive).
As to `COc1ccccc1CN1C(=O)CN(C2CCCCCC2)C(=O)C1c1ccc(F)cc1` (stereo unspecified), the figures for the AC50 in [2], in [4] and in assay [5] were 30.9 µM (active), 60.9 µM (active) and 20.9 µM (active), respectively.
Regarding `CN(C(=O)Cn1nc(C(=O)O)c2ccccc2c1=O)C1(C#N)CCCCC1`, in the assay with H9c2, the IC50 is > 79 µM (inactive).
